Test results reported in patent publication US20210405025A1, “IDENTIFYING COMPOUNDS FOR TREATING CANCER AND USE THEREOF” (THE UAB RESEARCH FOUNDATION, priority 2018, published 2021).
Structures can show the parent of a compound that is named as a salt. Where two headings read alike, the source gives them in different places.

Tested on: relapsed AML cells
Test: Drug sensitivity assay, 1,536-well, 3-day culture with individual approved drugs at 10 μM, viability by alamarBlue
Format: cell-based, human
Procedure, shortened: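 Three-day exposure of primary AML cells to individual drugs in 1,536-well format, viability read as percent live cells. Cells were thawed, cultured overnight, sorted by FACS for viable blasts and plated at 4,000-4,500 cells/5 μL in cytokine-supplemented IMDM/BIT medium.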

[1] = number of relapsed AML cases out of 18 tested with >70% cell death, 10 μM, 3-day culture

Compound | #Cases >70% cell death [1] | #Cases >70% cell death
CCC(=O)O[C@]1(C(=O)CCl)[C@@H](C)C[C@H]2[C@@H]3CCC4=CC(=O)C=C[C@]4(C)[C@@]3(F)[C@@H](O)C[C@@]21C [CLOBETASOL PROPIONATE] | 4 | –
Nc1ccc2cc3ccc(N)cc3nc2c1 [PROFLAVINE HEMISULFATE] | 3 | –
Nc1nc2nc[nH]c2c(=S)[nH]1 [THIOGUANINE] | 14 | –
O=c1[nH]c(=O)n([C@H]2C[C@H](O)[C@@H](CO)O2)cc1F [FLOXURIDINE] | 8 | –
O=C(NCC1CCCCN1)c1cc(OCC(F)(F)F)ccc1OCC(F)(F)F (stereo not shown) | 1 | –
CCCn1c(=O)c2[nH]c(C34CC5CC(CC3C5)C4)nc2n(CCC)c1=O [ROLOFYLLINE] | 1 | –
C[C@@H]1C[C@H]2[C@@H]3CCC4=CC(=O)C=C[C@]4(C)[C@@]3(Cl)[C@@H](O)C[C@]2(C)[C@@]1(OC(=O)c1ccco1)C(=O)CCl [MOMETASONE FUROATE] | 2 | –
CN1CCN(CCCN2c3ccccc3Sc3ccc(C(F)(F)F)cc32)CC1 [TRIFLUOPERAZINE] | 3 | –
O=c1cc[nH]c(=O)[nH]1 [URACIL] | 7 | –
BENZALKONIUM CHLORIDE | 15 | –
CCN(CC)CCOCCOC(=O)C(CC)(CC)c1ccccc1.O=C(O)CC(O)(CC(=O)O)C(=O)O [OXELAIDIN CITRATE] | 2 | –
C#CCC(Cc1cnc2nc(N)nc(N)c2n1)c1ccc(C(=O)N[C@@H](CCC(=O)O)C(=O)O)cc1 (stereo partly shown) [PRALATREXATE(FOLOTYN, PRALATREXATE] | 5 | –
C[C@]12CC[C@@H]3c4ccc(O)cc4CC[C@H]3[C@@H]1CC[C@@H]2OC(=O)CCC1CCCC1 [ESTRADIOL CYPIONATE] | 2 | –
C[C@@H]1C[C@H]2[C@@H]3CCC4=CC(=O)C=C[C@]4(C)[C@@]3(F)[C@@H](O)C[C@]2(C)[C@@]1(O)C(=O)CO [DEXAMETHASONE] | 2 | –
CC(=O)Nc1ccc([C@H](C)C(=O)Nc2ncc(C(C)C)s2)cc1 [PHA-690509] | 11 | –
OCCN1CCN(CCCN2c3ccccc3Sc3ccc(C(F)(F)F)cc32)CC1 [FLUPHENAZINE] | 3 | –
COC(=O)C1=C(C)NC(C)=C(C(=O)OCCN2CCN(C(c3ccccc3)c3ccccc3)CC2)C1c1cccc([N+](=O)[O-])c1 (stereo not shown) [MANIDIPINE] | 5 | –
IFENPRODIL TARTRATE | 4 | –
CC[C@H]1OC(=O)C[C@@H](O)[C@H](C)[C@@H](O[C@@H]2O[C@H](C)[C@@H](O[C@H]3C[C@@](C)(O)[C@@H](O)[C@H](C)O3)[C@H](N(C)C)[C@H]2O)[C@@H](CC=O)C[C@@H](C)C(=O)/C=C/C(C)=C/[C@@H]1CO[C@@H]1O[C@H](C)[C@@H](O)[C@@H](OC)[C@H]1OC [TYLOSIN] | 1 | –
COc1cc([C@@H]2c3cc4c(cc3[C@H](O)[C@H]3COC(=O)[C@H]23)OCO4)cc(OC)c1OC [PODOFILOX] | 13 | –
CCCCOc1cc(C(=O)OCCN(CC)CC)ccc1N [BENOXINATE] | 5 | –
COc1c(C)c2c(c(O)c1C/C=C(\C)CCC(=O)OCCN1CCOCC1)C(=O)OC2 [MYCOPHENOLATE MOFETIL] | 5 | –
CCC1=C[C@@H]2CN(CCc3c([nH]c4ccccc34)[C@@](C(=O)OC)(c3cc4c(cc3OC)N(C)[C@H]3[C@@](O)(C(=O)OC)[C@H](OC(C)=O)[C@]5(CC)C=CCN6CC[C@]43[C@@H]65)C2)C1 [ANHYDROVINBLASTINE] | 5 | –

Compound | #Cases >70% cell death [1] | #Cases >70% cell death
CC(=O)O[C@@]12CO[C@@H]1C[C@H](O)[C@@]1(C)C(=O)[C@H](O)C3=C(C)[C@@H](OC(=O)[C@H](O)[C@@H](NC(=O)OC(C)(C)C)c4ccccc4)C[C@@](O)([C@@H](OC(=O)c4ccccc4)[C@H]21)C3(C)C [DOCETAXEL] | 5 | –
Nc1ncn([C@@H]2O[C@H](CO)[C@@H](O)[C@H]2O)c(=O)n1 [AZACYTIDINE] | 8 | –
CO[C@H]1C[C@H](O[C@H]2[C@H](C)O[C@@H](O[C@@H]3/C(C)=C/C[C@@H]4C[C@@H](C[C@]5(C=C[C@H](C)[C@@H](C6CCCCC6)O5)O4)OC(=O)[C@@H]4C=C(C)[C@@H](O)[C@H]5OC/C(=C\C=C\[C@@H]3C)[C@]54O)C[C@@H]2OC)O[C@@H](C)[C@@H]1O [DORAMECTIN] | 18 | –
Nc1nc(F)nc2c1ncn2[C@@H]1O[C@H](COP(=O)(O)O)[C@@H](O)[C@@H]1O [FLUDARABINE PHOSPHATE] | 4 | –
COc1ccc(CCN2CCC(Nc3nc4ccccc4n3Cc3ccc(F)cc3)CC2)cc1 [ASTEMIZOLE] | 7 | –
Nc1nc(Cl)nc2c1ncn2[C@@H]1O[C@H](CO)[C@@H](O)[C@@H]1F [CLOFARABINE] | 18 | –
CC1(C)CC[C@]2(C(=O)O)CC[C@]3(C)[C@H](C(=O)C=C4[C@@]5(C)C=C(C#N)C(=O)C(C)(C)[C@@H]5CC[C@]43C)[C@@H]2C1 [BARDOXOLONE] | 12 | –
COc1cc(Nc2c(C#N)cnc3cc(OCCCN4CCN(C)CC4)c(OC)cc23)c(Cl)cc1Cl [BOSUTINIB] | 12 | –
CC[C@H]1OC(=O)C[C@@H](O)[C@H](C)[C@@H](O[C@@H]2O[C@H](C)[C@@H](O)[C@H](N(C)C)[C@H]2O)[C@@H](CCN2C[C@H](C)C[C@H](C)C2)C[C@@H](C)C(=O)/C=C/C(C)=C/[C@@H]1CO[C@@H]1O[C@H](C)[C@@H](O)[C@@H](OC)[C@H]1OC [TILMICOSIN] | 1 | –
NC[C@H]1O[C@H](O[C@H]2[C@H](O)[C@@H](O[C@H]3O[C@H](CO)[C@@H](O)[C@H](N)[C@H]3O)[C@H](N)C[C@@H]2N)[C@H](N)C[C@@H]1O [TOBRAMYCIN] | 1 | –
CC(C)/N=c1\cc2n(-c3ccc(Cl)cc3)c3ccccc3nc-2cc1Nc1ccc(Cl)cc1 [CLOFAZIMINE] | 6 | –
Nc1ccncc1 [4-AMINOPYRIDINE] | 1 | –
CCCC1O[C@@H]2C[C@H]3[C@@H]4CCC5=CC(=O)C=C[C@]5(C)[C@H]4[C@@H](O)C[C@]3(C)[C@]2(C(=O)CO)O1 (stereo partly shown) [BUDESONIDE] | 2 | –
Cc1nnc(NS(=O)(=O)c2ccc(N)cc2)s1 [SULFAMETHIZOLE] | 18 | –
COc1ccc2c(c1)/C(=C/c1cnc[nH]1)C(=O)N2 [SU-9516] | 1 | –
C[C@@H]1CCCN1CCc1cc2cc(-c3ccc(C#N)cc3)ccc2o1 [ABT-239] | 1 | –
Nc1ccn([C@@H]2O[C@H](CO)[C@@H](O)C2(F)F)c(=O)n1 [GEMCITABINE] | 16 | –
CN(C)CC(=O)N1CCC(c2ccc(NC(=O)c3nc(C#N)c[nH]3)c(C3=CCCCC3)c2)CC1 [JNJ-28312141] | 7 | –
N#Cc1cc(CN2CCC(Nc3ncnc4sc(Cl)cc34)CC2)ccc1F [PRX-8066] | 1 | –
CC[C@@H]([C@H](C)O)n1ncn(-c2ccc(N3CCN(c4ccc(OC[C@@H]5CO[C@@](Cn6cncn6)(c6ccc(F)cc6F)C5)cc4)CC3)cc2)c1=O [POSACONAZOLE] | 6 | –
Cn1c(=O)c2c(ncn2CC2OCCO2)n(C)c1=O [DOXOFYLLINE] | 1 | –
Cc1nc2ccc(CN(C)c3ccc(C(=O)N[C@@H](CCC(=O)O)C(=O)O)s3)cc2c(=O)[nH]1 [RALTITREXED] | 3 | –
Nc1nc2nn[nH]c2c(=O)[nH]1 [8-AZAGUANINE] | 1 | –

Compound | #Cases >70% cell death [1] | #Cases >70% cell death
EXATECAN MESYLATE | 12 | –
CCCCOc1ccc(CC(=O)NO)cc1 [BUFEXAMAC] | 9 | –
C[C@H](CCC(=O)O)[C@H]1CC[C@H]2[C@@H]3[C@@H](O)C[C@@H]4C[C@H](O)CC[C@]4(C)[C@H]3CC[C@]12C [URSODIOL] | 2 | –
APILIMOD MESYLATE | 4 | –
CCCCC(CC)COC(=O)C(C#N)=C(c1ccccc1)c1ccccc1 (stereo not shown) [OCTOCRYLENE] | 1 | –
O=C(CCCCCCC(=O)Nc1cccnc1)NO [PYROXAMIDE] | 15 | –
O=C(Nc1ccc([N+](=O)[O-])cc1Cl)c1cc(Cl)ccc1O [NICLOSAMIDE] | 1 | –
CC[C@]1(O)C[C@@H]2CN(CCc3c([nH]c4ccccc34)[C@@](C(=O)OC)(c3cc4c(cc3OC)N(C)[C@H]3[C@@](O)(C(N)=O)[C@H](O)[C@]5(CC)C=CCN6CC[C@]43[C@@H]65)C2)C1 | 9 | –
CC(=O)[C@@]1(O)CC[C@H]2[C@@H]3CCC4=CC(=O)CC[C@]4(C)[C@H]3CC[C@@]21C [HYDROXYPROGESTERONE] | 2 | –
CN(C)c1ccc2nc3ccc(=[N+](C)C)cc-3sc2c1 [METHYLENE BLUE] | 18 | –
CCOC(=O)C1=C(COCCN)NC(C)=C(C(=O)OC)C1c1ccccc1Cl (stereo not shown) [AMLODIPINE] | 14 | –
COc1cc2c(cc1O)CC[C@@H]1[C@@H]2CC[C@]2(C)[C@@H](O)CC[C@@H]12 [2-METHOXYESTRADIOL] | 2 | –
C1CCC(C(CC2CCCCN2)C2CCCCC2)CC1 (stereo not shown) [PERHEXILINE MALEATE] | 13 | –
CCN(CC)CCNC(=O)c1c(C)[nH]c(/C=C2\C(=O)Nc3ccc(F)cc32)c1C [SUNITINIB MALATE] | 15 | –
COC(=O)C1=C(C)NC(C)=C(C(=O)OCCCN2CCC(c3ccccc3)(c3ccccc3)CC2)[C@@H]1c1cccc([N+](=O)[O-])c1 [DEXNIGULDIPINE] | – | 8
Clc1ccc(CCC(Cn2ccnc2)Sc2c(Cl)cccc2Cl)cc1 (stereo not shown) [BUTOCONAZOLE] | 1 | –
COc1ccc(-c2ccc3ncc4c(c3c2)n(-c2ccc(N3CCNCC3)c(C(F)(F)F)c2)c(=O)n4C)cn1 [NVP-BGT226] | 8 | –
C#C[C@]1(O)CC[C@H]2[C@@H]3[C@H](C)CC4=C(CCC(=O)C4)[C@H]3CC[C@@]21C [TIBOLONE] | 1 | –
CC(=O)CC(c1ccc([N+](=O)[O-])cc1)c1c(O)c2ccccc2oc1=O (stereo not shown) [ACENOCOUMAROL] | 4 | –
C[C@H]1[C@H](OC(=O)CCC(=O)O)O[C@@H]2O[C@@]3(C)CC[C@H]4[C@H](C)CC[C@@H]1[C@@]24OO3 [ARTESUNATE] | 5 | –
O=C(NC1CCNCC1)c1[nH]ncc1NC(=O)c1c(Cl)cccc1Cl [AT-7519] | 18 | –
